# According to US10189809B2, “SGC stimulators” (Ironwood Pharmaceuticals, Inc., priority 2010, dated 2019):
# Read-outs that look alike come from different tables or passages of the source.
# Legend:
# [1] = target: T1, soluble guanylate cyclase (sGC) (Homo sapiens (Human), UniProt Q02108+Q02153); experiment: sGC-HEK-cGMP assay run in the absence of SNP (HEK WC assay); type: cell-based; settings: compound at 30 μM, absence of SNP
# Experimental: (§1) Human embryonic kidney cells (HEK293), endogenously expressing soluble guanylate cyclase (sGC), were used to evaluate the activity of test compounds. Compounds stimulating the sGC receptor should cause an increase in the intracellular concentration of cGMP. HEK 293 cells were seeded in Dulbecco's Modification of Eagle's Medium supplemented with fetal bovine serum (10% final) and L-glutamine (2 mM final) in a 200 μL volume at a density of 1×10^5 cells/well in a poly-D-lysine coated 96 well flat bottom plate and grown overnight at 37° C. Medium was aspirated and cells were washed with 1× Hank's Buffered Saline Salt Solution (200 μL). Cells were then incubated for 15 minutes at 37° C. with 0.5 mM 3-isobutyl-1-methylxanthine (200 μL). Test article was then added to the assay mixture (2 μL) and incubated at 37° C. for 10 minutes. After the 10 minute incubation, the assay mixture was aspirated and 0.1M HCl (200 μL) was added to the cells. The plate was incubated at 4° C. for 30 minutes in the 0.1M HCl to stop the reaction and lysed the cells. The plates were then centrifuged at 1,200 g for 5 minutes at room temperature. Supernatants were collected and transferred to a new flat bottom 96 well plate for analysis. Vehicle controls were carried out using DMSO (1%). A known sGC stimulator, BAY 41-2272, was used as the positive control. Samples were diluted with an equal volume of 1 M Ammonium Acetate (pH 7) to neutralize samples for better chromatography. A 2× cGMP standard curve was prepared in 0.1 M HCl and then diluted with an equal volume of 1 M Ammonium Acetate, with the following final concentrations in nM: 1024, 512, 256, 128, 64, 32, 16, 8, 4, 2, 1. cGMP concentrations were determined from each sample using the LC/MS conditions (Table 2 below) and calculated standard curve. EC50 values were calculated from concentration-response curves generated with GraphPad Prism Software.
# [2] = target: T1, soluble guanylate cyclase (sGC); experiment: sGC-HEK-cGMP assay run with SNP incubation (HEK WC assay); type: cell-based; settings: for HEK WC Assay (fold increase at 30 μM in the presence of 10 μM SNP): compound at 30 μM; for EC50: in the presence of 10 uM SNP
# Experimental: as §1, with “article and sodium nitroprusside were” for “article was”, “(2 μL each)” for “(2 μL)”, “(1%). […]” for “(1%). A known sGC stimulator, BAY 41-2272, was used as the positive control.”, “chromatography. […]” for “chromatography. A 2× cGMP standard curve was prepared in 0.1 M HCl and then diluted with an equal volume of 1 M Ammonium Acetate, with the following final concentrations in nM: 1024, 512, 256, 128, 64, 32, 16, 8, 4, 2, 1. cGMP concentrations were determined from each sample using the LC/MS conditions (Table 2 below) and calculated standard curve.”
# [3] = read-out: HEK WC Assay (% Emax at 10 μM with 10 uM SNP)
# [4] = read-out: HEK WC Assay (% Emax at 30 μM with 10 uM SNP)
# [5] = read-out: HEK WC Assay (% Emax at 1 μM with 10 uM SNP)
# T1 sequence (Q02153 whole entry): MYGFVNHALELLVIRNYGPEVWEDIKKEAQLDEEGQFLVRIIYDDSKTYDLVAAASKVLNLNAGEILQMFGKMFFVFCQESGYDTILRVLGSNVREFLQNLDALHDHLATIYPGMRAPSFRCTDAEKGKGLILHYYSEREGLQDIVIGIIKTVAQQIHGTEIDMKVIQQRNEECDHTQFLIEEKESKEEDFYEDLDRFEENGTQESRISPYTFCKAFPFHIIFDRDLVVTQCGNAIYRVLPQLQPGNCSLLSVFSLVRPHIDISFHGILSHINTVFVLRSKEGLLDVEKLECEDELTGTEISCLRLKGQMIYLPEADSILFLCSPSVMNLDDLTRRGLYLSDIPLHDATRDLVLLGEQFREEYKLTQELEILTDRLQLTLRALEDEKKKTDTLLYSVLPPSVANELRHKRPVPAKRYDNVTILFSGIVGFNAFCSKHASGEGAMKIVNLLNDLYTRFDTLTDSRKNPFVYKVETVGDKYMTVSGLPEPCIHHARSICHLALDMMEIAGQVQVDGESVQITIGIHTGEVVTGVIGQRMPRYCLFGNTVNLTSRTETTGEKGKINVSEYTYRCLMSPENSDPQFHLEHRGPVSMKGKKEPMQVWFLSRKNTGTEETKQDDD
# T1 sequence (Q02108 whole entry): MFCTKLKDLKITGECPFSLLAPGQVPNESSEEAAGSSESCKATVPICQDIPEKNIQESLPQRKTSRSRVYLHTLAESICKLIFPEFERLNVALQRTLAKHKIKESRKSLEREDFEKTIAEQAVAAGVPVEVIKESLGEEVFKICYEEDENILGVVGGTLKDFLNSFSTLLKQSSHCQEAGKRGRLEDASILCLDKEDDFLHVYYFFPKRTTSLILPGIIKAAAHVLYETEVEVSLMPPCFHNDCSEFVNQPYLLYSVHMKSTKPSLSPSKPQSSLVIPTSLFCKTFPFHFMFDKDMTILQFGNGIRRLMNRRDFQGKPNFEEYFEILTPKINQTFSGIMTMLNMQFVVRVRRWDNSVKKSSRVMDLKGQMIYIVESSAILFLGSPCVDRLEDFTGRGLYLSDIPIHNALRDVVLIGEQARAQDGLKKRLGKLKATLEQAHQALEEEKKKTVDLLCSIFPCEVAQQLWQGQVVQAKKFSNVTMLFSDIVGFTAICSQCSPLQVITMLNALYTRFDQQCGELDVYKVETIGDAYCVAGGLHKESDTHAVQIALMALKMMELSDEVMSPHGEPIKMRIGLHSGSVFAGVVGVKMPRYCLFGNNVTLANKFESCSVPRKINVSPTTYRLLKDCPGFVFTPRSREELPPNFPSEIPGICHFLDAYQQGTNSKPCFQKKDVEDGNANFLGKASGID
SMILES,HEK WC Assay (fold increase at 30 μM in the absence of SNP) [1],HEK WC Assay (fold increase at 30 μM in the presence of 10 μM SNP) [2],"Emax [2, 3]","Emax [2, 4]",EC50 [2],"Emax [2, 5]",Emax at 10 µM ([2]; read-out: HEK WC Assay (% Emax at 10 μM/with 10 uM SNP)),Emax at 30 µM ([2]; read-out: HEK WC Assay (% Emax at 30 μM/with 10 uM SNP))
Nc1nc(-c2cc(-c3ccon3)n(Cc3ccccc3F)n2)ncc1NC(=O)/C=C/c1ccccc1 [Compound I-239],D (D = 5 to <10 fold increase),E (E = 10 to <20 fold increase),60 to 80%,60 to 80%,< 20 µM,40 to 60%,,
Nc1nc(-c2cc(-c3ccon3)n(Cc3ccccc3F)n2)ncc1NC(=O)[C@@H]1CCCN1 [Compound I-225],C (C = 2 to <5 fold increase),E (E = 10 to <20 fold increase),20 to 40%,20 to 40%,60 to 100 µM,0 to 10%,,
Nc1nc(-c2cc(-c3ccon3)n(Cc3ccccc3F)n2)ncc1NC(=O)C12CC3CC(CC(C3)C1)C2 [Compound I-233],E (E = 10 to <20 fold increase),F (F = 20 to <30 fold increase),80 to 100%,80 to 100%,< 20 µM,80 to 100%,,
Nc1nc(-c2cc(-c3ccon3)n(Cc3ccccc3F)n2)ncc1NC(=O)C1(c2ccccc2)CCC1 [Compound I-218],D (D = 5 to <10 fold increase),E (E = 10 to <20 fold increase),40 to 60%,20 to 40%,20 to 40 µM,40 to 60%,,
c1cnc(-c2cc(-c3ccon3)n(Cc3cncnc3)n2)nc1 [Compound I-208],B (B = 1 to <2 fold increase),D (D = 5 to <10 fold increase),10 to 20%,10 to 20%,100 to 300 µM,0 to 10%,,
Cc1cc(O)nc(-c2cc(-c3ccon3)n(Cc3ccccc3F)n2)n1 [Compound I-298],B (B = 1 to <2 fold increase),C (C = 2 to <5 fold increase),10 to 20%,20 to 40%,,,,
Fc1cccc(Cn2nc(-c3ncccn3)cc2-c2ccon2)c1 [Compound I-202],C (C = 2 to <5 fold increase),E (E = 10 to <20 fold increase),40 to 60%,40 to 60%,< 20 µM,20 to 40%,,
CCOC(=O)c1cnc(-c2cc(-c3ccon3)n(Cc3ccccc3F)n2)nc1NCc1ccc(OC)cc1 [Compound I-134],B (B = 1 to <2 fold increase),B (B = 1 to <2 fold increase),0 to 10%,0 to 10%,,,20 to 40%,40 to 60%
CN(C(=O)c1ccccc1)c1cnc(-c2cc(-c3ccon3)n(Cc3ccccc3F)n2)nc1N [Compound I-228],C (C = 2 to <5 fold increase),E (E = 10 to <20 fold increase),40 to 60%,40 to 60%,20 to 40 µM,10 to 20%,,
CC(C)=CC(=O)Nc1cnc(-c2cc(-c3ccon3)n(Cc3ccccc3F)n2)nc1N [Compound I-240],E (E = 10 to <20 fold increase),E (E = 10 to <20 fold increase),60 to 80%,60 to 80%,< 20 µM,60 to 80%,,
CN(C(=O)C(C)(C)C)c1cnc(-c2cc(-c3ccon3)n(Cc3ccccc3F)n2)nc1N [Compound I-234],C (C = 2 to <5 fold increase),E (E = 10 to <20 fold increase),40 to 60%,40 to 60%,< 20 µM,20 to 40%,,
CC(F)(F)C(=O)Nc1cnc(-c2cc(-c3ccon3)n(Cc3ccccc3F)n2)nc1N [Compound I-226],E (E = 10 to <20 fold increase),F (F = 20 to <30 fold increase),80 to 100%,60 to 80%,< 20 µM,40 to 60%,,
Nc1nc(-c2cc(-c3ccon3)n(Cc3ccccc3F)n2)ncc1NC(=O)c1cccc(C(F)(F)F)c1 [Compound I-215],E (E = 10 to <20 fold increase),F (F = 20 to <30 fold increase),80 to 100%,80 to 100%,< 20 µM,80 to 100%,,

# Results, then the molecule that gave them:
HEK WC Assay (fold increase at 30 μM in the absence of SNP) [1],HEK WC Assay (fold increase at 30 μM in the presence of 10 μM SNP) [2],"Emax [2, 3]","Emax [2, 4]",EC50 [2],"Emax [2, 5]",Emax at 10 µM ([2]; read-out: HEK WC Assay (% Emax at 10 μM/with 10 uM SNP)),Emax at 30 µM ([2]; read-out: HEK WC Assay (% Emax at 30 μM/with 10 uM SNP)),SMILES
B (B = 1 to <2 fold increase),C (C = 2 to <5 fold increase),0 to 10%,0 to 10%,,,,,Fc1ccccc1Cn1nc(-c2ccccn2)cc1N1CCC1 [Compound I-287]
B (B = 1 to <2 fold increase),C (C = 2 to <5 fold increase),10 to 20%,20 to 40%,,,,,Fc1ccccc1Cn1nc(-c2ncccn2)cc1C1=NCCO1 [Compound I-290]
C (C = 2 to <5 fold increase),C (C = 2 to <5 fold increase),20 to 40%,20 to 40%,40 to 60 µM,,,,N#Cc1cc(-c2ncccn2)nn1Cc1ccccc1F [Compound I-293]
B (B = 1 to <2 fold increase),C (C = 2 to <5 fold increase),0 to 10%,10 to 20%,40 to 60 µM,,,,Oc1coc(-c2cc(-c3ncccn3)nn2Cc2ccccc2F)n1 [Compound I-295]
B (B = 1 to <2 fold increase),B (B = 1 to <2 fold increase),0 to 10%,0 to 10%,,0 to 10%,,,FC(F)(F)c1ccccc1Cn1nc(-c2ncccn2)cc1-c1ccon1 [Compound I-201]
D (D = 5 to <10 fold increase),E (E = 10 to <20 fold increase),60 to 80%,60 to 80%,< 20 µM,40 to 60%,,,Fc1ccccc1Cn1nc(-c2ncccn2)cc1-c1ccon1 [Compound I-195]
C (C = 2 to <5 fold increase),C (C = 2 to <5 fold increase),0 to 10%,0 to 10%,,,,,Fc1ccccc1Cn1nc(-c2ncccn2)cc1C1CCC1 [Compound I-307]
B (B = 1 to <2 fold increase),E (E = 10 to <20 fold increase),20 to 40%,20 to 40%,< 20 µM,,,,Fc1ccccc1Cn1nc(-c2ncccn2)cc1-c1ncco1 [Compound I-309]
B (B = 1 to <2 fold increase),B (B = 1 to <2 fold increase),0 to 10%,0 to 10%,,,,,COc1oc(-c2cc(-c3ncccn3)nn2Cc2ccccc2F)nc1C [Compound I-291]
B (B = 1 to <2 fold increase),B (B = 1 to <2 fold increase),0 to 10%,0 to 10%,,,,,CCOc1cnc(-c2cc(-c3ncccn3)nn2Cc2ccccc2F)o1 [Compound I-292]
